In patent US10172797B2, “Extruded extended release abuse deterrent pill” (Pharmaceutical Manufacturing Research Services, Inc., priority 2013, dated 2019):

Tests used:
[1] = Alcohol solubility tested (200 proof ethanol, 0.22 micrometer PTFE filter); format: physicochemical
Excerpt: The following table lists the relative solubility of exemplary components of a formulation. A number of different dyes are listed along with their solubility information taken from the various literature sources and tested experimentally (200 proof ethanol and filtered through a 0.22 micrometer PTFE filter).

[2] = cited from earlier work

COc1cc(S(=O)(=O)[O-])c(C)cc1N=Nc1c(O)ccc2cc(S(=O)(=O)[O-])ccc12.[Na+].[Na+] [Red #40]
Yes: Alcohol Solubility (tested) [1] | Alcohol Solubility (Literature) [2] | Water Solubility [2]

O=C([O-])C1=NN(c2ccc(S(=O)(=O)[O-])cc2)C(=O)C1N=Nc1ccc(S(=O)(=O)[O-])cc1.[Na+].[Na+].[Na+] (stereo not drawn) [Yellow #5]
Yes: Alcohol Solubility (tested) [1] | Alcohol Solubility (Literature) [2] | Water Solubility [2]

CCN(Cc1cccc(S(=O)(=O)[O-])c1)c1ccc(C(=C2C=CC(=[N+](CC)Cc3cccc(S(=O)(=O)[O-])c3)C=C2)c2ccccc2S(=O)(=O)[O-])cc1.[Na+].[Na+] [Blue #1]
Yes: Alcohol Solubility (tested) [1] | Alcohol Solubility (Literature) [2] | Water Solubility [2]

O=C1/C(=C2\Nc3ccc(S(=O)(=O)[O-])cc3C2=O)Nc2ccc(S(=O)(=O)[O-])cc21.[Na+].[Na+] [Blue #2]
Yes: Alcohol Solubility (tested) [1] | Alcohol Solubility (Literature) [2] | Water Solubility [2]
